Laboratory results reported in ChEMBL document CHEMBL1129198, “Synthesis and antibacterial activity of lipophilic carbapenems with anti-MRSA activity” (Bioorg Med Chem Lett, 1996).
≈ marks a conversion by molar mass, not a printed value.

Assays:
[1] = tested on: Enterococcus faecium; assay: Antibacterial activity against vancomycin-resistant Enterococcus faecium 628016.; type: functional
[2] = tested on: Enterococcus faecalis; assay: Antibacterial activity against vancomycin-sensitive Enterococcus faecalis 683026.; type: functional
[3] = tested on: Staphylococcus aureus; assay: Antibacterial activity against methicillin-resistant Staphylococcus aureus 601053.; type: functional
[4] = tested on: Staphylococcus aureus; assay: Antibacterial activity against methicillin-resistant Staphylococcus aureus 607004.; type: functional
[5] = tested on: Staphylococcus aureus; assay: Antibacterial activity against methicillin-sensitive Staphylococcus aureus 601055.; type: functional
[6] = tested on: Staphylococcus aureus; assay: Antibacterial activity against methicillin-sensitive Staphylococcus aureus 601055.(grown in the presence of blood); type: functional
[7] = tested on: Streptococcus pneumoniae; assay: Antibacterial activity against penicillin-resistant Streptococcus pneumoniae 671319; type: functional
[8] = tested on: Staphylococcus haemolyticus; assay: Antibacterial activity against methicillin-resistant Staphylococcus haemolyticus 601117; type: functional
[9] = In vitro binding affinity towards PBP2'' of Staphylococcus aureus using [14C]benzylpenicillin as radioligand
[10] = tested on: Staphylococcus aureus; assay: Compound was tested for its binding affinity against PBP2' receptor in Staphylococcus aureus.; type: functional, organism-based
[11] = tested on: Staphylococcus aureus; assay: Compound was tested for its binding affinity against PBP2'' receptor in Staphylococcus aureus. Values taken from literature.; type: functional

Row | SMILES | MIC [1] [µg/mL] | MIC [2] [µg/mL] | MIC [3] [µg/mL] | MIC [4] [µg/mL] | MIC [5] [µg/mL] | MIC [6] [µg/mL] | MIC [7] [µg/mL] | MIC [8] [µg/mL] | IC50 [9] [µg/mL] | IC50 [10] [µg/mL] | IC50 [11] [µg/mL]
1 | C[C@@H](O)[C@H]1C(=O)N2C(C(=O)[O-])=C(COc3ccc4nc(C[n+]5ccccc5)sc4c3)[C@H](C)[C@H]12 | 2 (≈ 4.3 µM) | 0.5 (≈ 1.07 µM) | 0.25 (≈ 0.537 µM) | 4 (≈ 8.59 µM) | 0.03 (≈ 0.0644 µM) | 0.016 | 0.06 (≈ 0.129 µM) | 2 (≈ 4.3 µM) | – | – | –
2 | C[C@@H](O)[C@H]1C(=O)N2C(C(=O)O)=C(COc3cccc4c3C/C(=C\c3cccs3)C4=O)[C@H](C)[C@H]12 | 4 (≈ 8.59 µM) | 2 (≈ 4.3 µM) | 0.25 (≈ 0.537 µM) | 2 (≈ 4.3 µM) | 0.008 (≈ 0.0172 µM) | 0.008 | 0.03 (≈ 0.0644 µM) | 0.5 (≈ 1.07 µM) | – | – | –
3 | C[C@@H](O)[C@H]1C(=O)N2C(C(=O)O)=C(COc3ccc4occ(CN(C)C)c(=O)c4c3)[C@H](C)[C@H]12 | 2 (≈ 4.52 µM) | 0.5 (≈ 1.13 µM) | 0.5 (≈ 1.13 µM) | 4 (≈ 9.04 µM) | 0.06 (≈ 0.136 µM) | 0.016 | 0.12 (≈ 0.271 µM) | 2 (≈ 4.52 µM) | – | – | –
4 | C[C@@H](O)[C@H]1C(=O)N2C(C(=O)O)=C(COc3cccc4c3CCC4=O)[C@H](C)[C@H]12 | 2 (≈ 5.39 µM) | 1 (≈ 2.69 µM) | 0.12 (≈ 0.323 µM) | 4 (≈ 10.8 µM) | 0.016 (≈ 0.0431 µM) | 0.008 | 0.06 (≈ 0.162 µM) | 8 (≈ 21.5 µM) | – | – | –
5 | C[C@@H](O)[C@H]1C(=O)N2C(C(=O)O)=C(COc3ccc4occc(=O)c4c3)[C@H](C)[C@H]12 | 2 (≈ 5.19 µM) | 2 (≈ 5.19 µM) | 0.25 (≈ 0.649 µM) | 2 (≈ 5.19 µM) | 0.016 (≈ 0.0415 µM) | 0.016 | 0.03 (≈ 0.0778 µM) | 2 (≈ 5.19 µM) | – | – | –
6 | C[C@@H](O)[C@H]1C(=O)N2C(C(=O)O)=C(COc3ccc4c(c3)CCC4)[C@H](C)[C@H]12 | 32 (≈ 89.5 µM) | 64 (≈ 179 µM) | 1 (≈ 2.8 µM) | 16 (≈ 44.8 µM) | 0.03 (≈ 0.0839 µM) | 8 | 1 (≈ 2.8 µM) | 16 (≈ 44.8 µM) | – | – | –
7 | C[C@@H](O)[C@H]1C(=O)N2C(C(=O)O)=C(SCCc3ccc4ccccc4c3)[C@H](C)[C@H]12 | 16 (≈ 40.3 µM) | 8 (≈ 20.1 µM) | 8 (≈ 20.1 µM) | 32 (≈ 80.5 µM) | 0.13 (≈ 0.327 µM) | 0.13 | 0.5 (≈ 1.26 µM) | 128 (≈ 322 µM) | – | – | –
8 | C[C@@H](O)[C@H]1C(=O)N2C(C(=O)O)=C(CSc3ccc4c(c3)OCCC4=O)[C@H](C)[C@H]12 | 0.5 (≈ 1.24 µM) | 1 (≈ 2.48 µM) | 1 (≈ 2.48 µM) | 1 (≈ 2.48 µM) | 0.03 (≈ 0.0744 µM) | 0.008 | 0.03 (≈ 0.0744 µM) | 1 (≈ 2.48 µM) | – | – | –
9 | C[C@@H](O)[C@H]1C(=O)N2C(C(=O)O)=C(CNC(=O)c3ccc4ccccc4c3)[C@H](C)[C@H]12 | 32 (≈ 81.1 µM) | 16 (≈ 40.6 µM) | 8 (≈ 20.3 µM) | 128 (≈ 325 µM) | 0.5 (≈ 1.27 µM) | 0.25 | 4 (≈ 10.1 µM) | 128 (≈ 325 µM) | – | – | –
10 | C[C@@H](O)[C@H]1C(=O)N2C(C(=O)O)=C(CSc3ccc4c(c3)CCC4=O)[C@H](C)[C@H]12 | 0.5 (≈ 1.29 µM) | 1 (≈ 2.58 µM) | 0.5 (≈ 1.29 µM) | 2 (≈ 5.16 µM) | 0.016 (≈ 0.0413 µM) | 0.008 | 0.03 (≈ 0.0774 µM) | 2 (≈ 5.16 µM) | – | – | –
11 | Cc1nc2ccc(SCC3=C(C(=O)O)N4C(=O)[C@H]([C@@H](C)O)[C@H]4[C@H]3C)cc2s1 | 8 (≈ 19.8 µM) | 2 (≈ 4.94 µM) | 2 (≈ 4.94 µM) | 4 (≈ 9.89 µM) | 0.03 (≈ 0.0742 µM) | 0.016 | 0.06 (≈ 0.148 µM) | 4 (≈ 9.89 µM) | – | – | –
12 | C[C@@H](O)[C@H]1C(=O)N2C(C(=O)O)=C(Sc3ccc4ccccc4c3)[C@H](C)[C@H]12 | 8 (≈ 21.7 µM) | 16 (≈ 43.3 µM) | 1 (≈ 2.71 µM) | 8 (≈ 21.7 µM) | 0.03 (≈ 0.0812 µM) | 0.03 | 2 (≈ 5.41 µM) | 8 (≈ 21.7 µM) | – | – | –
13 | C[C@@H](O)[C@H]1C(=O)N2C(C(=O)O)=C(COc3cccc4c3CCCC4=O)[C@H](C)[C@H]12 | 2 (≈ 5.19 µM) | 2 (≈ 5.19 µM) | 0.25 (≈ 0.649 µM) | 2 (≈ 5.19 µM) | 0.016 (≈ 0.0415 µM) | 0.008 | 0.06 (≈ 0.156 µM) | 4 (≈ 10.4 µM) | – | – | –
14 | C[C@@H](O)[C@H]1C(=O)N2C(C(=O)O)=C(CSc3ccc4c(c3)CC(=O)N4C)[C@H](C)[C@H]12 | 8 (≈ 19.9 µM) | 4 (≈ 9.94 µM) | 4 (≈ 9.94 µM) | 8 (≈ 19.9 µM) | 0.12 (≈ 0.298 µM) | 0.06 | 0.25 (≈ 0.621 µM) | 16 (≈ 39.8 µM) | – | – | –
15 | C[C@@H](O)[C@H]1C(=O)N2C(C(=O)O)=C(CSc3ccc4ccccc4c3)[C@H](C)[C@H]12 | 128 (≈ 334 µM) | 128 (≈ 334 µM) | 0.5 (≈ 1.3 µM) | 4 (≈ 10.4 µM) | 0.016 (≈ 0.0417 µM) | 32 | 1 (≈ 2.61 µM) | 2 (≈ 5.22 µM) | – | – | –
16 | C[C@@H](O)[C@H]1C(=O)N2C(C(=O)O)=C(SCc3ccc4ccccc4c3)[C@H](C)[C@H]12 | 8 (≈ 20.9 µM) | 2 (≈ 5.22 µM) | 1 (≈ 2.61 µM) | 1 (≈ 2.61 µM) | 0.06 (≈ 0.156 µM) | 0.03 | 0.06 (≈ 0.156 µM) | 2 (≈ 5.22 µM) | 9.5 (≈ 24.8 µM) | 9.5 (≈ 24.8 µM) | 2 (≈ 5.22 µM)
17 | C[C@@H](O)[C@H]1C(=O)N2C(C(=O)O)=C(CSc3ccc4ccccc4n3)[C@H](C)[C@H]12 | 1 (≈ 2.6 µM) | 4 (≈ 10.4 µM) | 0.13 (≈ 0.338 µM) | 4 (≈ 10.4 µM) | 0.016 (≈ 0.0416 µM) | 0.03 | 0.06 (≈ 0.156 µM) | 0.5 (≈ 1.3 µM) | – | – | –
18 | C[C@@H](O)[C@H]1C(=O)N2C(C(=O)[O-])=C(COc3ccc4cc(Cn5cc[n+](C)c5)ccc4c3)[C@H](C)[C@H]12 | 2 (≈ 4.33 µM) | 2 (≈ 4.33 µM) | 0.5 (≈ 1.08 µM) | 1 (≈ 2.17 µM) | 0.016 (≈ 0.0347 µM) | 0.016 | 0.06 (≈ 0.13 µM) | 2 (≈ 4.33 µM) | – | – | –
19 | C[C@@H](O)[C@H]1C(=O)N2C(C(=O)O)=C(COc3ccc4ccccc4c3)[C@H](C)[C@H]12 | 64 (≈ 174 µM) | 128 (≈ 348 µM) | 0.25 (≈ 0.68 µM) | 4 (≈ 10.9 µM) | 0.016 (≈ 0.0435 µM) | 32 | 4 (≈ 10.9 µM) | 2 (≈ 5.44 µM) | – | – | –
20 | C[C@@H](O)[C@H]1C(=O)N2C(C(=O)O)=C(Sc3ccc(C#N)c4ccccc34)[C@H](C)[C@H]12 | 2 (≈ 5.07 µM) | 8 (≈ 20.3 µM) | 0.5 (≈ 1.27 µM) | 2 (≈ 5.07 µM) | 0.016 (≈ 0.0406 µM) | 0.016 | 0.25 (≈ 0.634 µM) | 1 (≈ 2.54 µM) | – | – | –
21 | C[C@@H](O)[C@H]1C(=O)N2C(C(=O)O)=C(SCCNC(=O)c3ccc4ccccc4c3)[C@H](C)[C@H]12 | 8 (≈ 18.2 µM) | 4 (≈ 9.08 µM) | 4 (≈ 9.08 µM) | 64 (≈ 145 µM) | 0.13 (≈ 0.295 µM) | 0.13 | 0.25 (≈ 0.568 µM) | 256 (≈ 581 µM) | – | – | –
22 | C[C@@H](O)[C@H]1C(=O)N2C(C(=O)O)=C(Sc3cccc4ccccc34)[C@H](C)[C@H]12 | 32 (≈ 86.6 µM) | 16 (≈ 43.3 µM) | 1 (≈ 2.71 µM) | 8 (≈ 21.7 µM) | 0.06 (≈ 0.162 µM) | 0.06 | 1 (≈ 2.71 µM) | 8 (≈ 21.7 µM) | – | – | –
